Source: ChEMBL document CHEMBL1201862, “PubChem BioAssay data set” (2004)
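These data come from cells grown in 96-well plates and exposed to compound for 48 hours at five concentrations. GI50: concentration for 50% inhibition of growth.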 Activity calls are given as the source filed them. Rule as the data show it: active = GI50 up to about 1.1 µM and inactive = higher.

Assays:
Assay in all cases: inhibition of tumour cell growth, NCI panel, 48 h
786-0 = test system: 786-0
A498 = test system: A498
A549 = test system: A549
ACHN = test system: ACHN
CAKI-1 = test system: CAKI-1
CCRF-CEM = test system: CCRF-CEM
COLO 205 = test system: COLO 205
DLD-1 = test system: DLD-1
DMS-114 = test system: DMS-114
DMS-273 = test system: DMS-273
EKVX = test system: EKVX
HCC 2998 = test system: HCC 2998
HCT-116 = test system: HCT-116
HCT-15 = test system: HCT-15
HL-60 = test system: HL-60
HOP-18 = test system: HOP-18
HOP-62 = test system: HOP-62
HOP-92 = test system: HOP-92
HT-29 = test system: HT-29
IGROV-1 = test system: IGROV-1
K562 = test system: K562
KM-20L2 = test system: KM-20L2
KM12 = test system: KM12
LOX IMVI = test system: LOX IMVI
LXFL 529 = test system: LXFL 529
M14 = test system: M14
M19-MEL = test system: M19-MEL
MOLT-4 = test system: MOLT-4
Malme-3M = test system: Malme-3M
NCI-H23 = test system: NCI-H23
NCI-H460 = test system: NCI-H460
NCI-H522 = test system: NCI-H522
OVCAR-3 = test system: OVCAR-3
OVCAR-4 = test system: OVCAR-4
OVCAR-5 = test system: OVCAR-5
OVCAR-8 = test system: OVCAR-8
RPMI-8226 = test system: RPMI-8226
RXF 393 = test system: RXF 393
RXF 631 = test system: RXF 631
SF-268 = test system: SF-268
SF-295 = test system: SF-295
SF-539 = test system: SF-539
SK-MEL-28 = test system: SK-MEL-28
SK-MEL-2 = test system: SK-MEL-2
SK-MEL-5 = test system: SK-MEL-5
SK-OV-3 = test system: SK-OV-3
SN12C = test system: SN12C
SNB-19 = test system: SNB-19
SNB-75 = test system: SNB-75
SNB-78 = test system: SNB-78
SW-620 = test system: SW-620
TK-10 = test system: TK-10
U-251 = test system: U-251
UACC-257 = test system: UACC-257
UACC-62 = test system: UACC-62
UO-31 = test system: UO-31
NCI-H226 = test system: NCI-H226
XF498 = test system: XF498

Measured: GI50

COC(=O)c1nc(NC#N)nc(O)c1C
inactive: 786-0 > 100 µM | A498 > 100 µM | A549 > 89.5 µM | ACHN > 73.6 µM | CAKI-1 > 77.3 µM | CCRF-CEM 78 µM | COLO 205 > 100 µM | DLD-1 > 100 µM | DMS-114 > 100 µM | DMS-273 > 69.3 µM | EKVX > 100 µM | HCC 2998 > 100 µM | HCT-116 > 61.1 µM | HL-60 > 100 µM | HOP-18 > 100 µM | HOP-62 > 100 µM | HOP-92 50.2 µM | HT-29 > 100 µM | IGROV-1 > 72.9 µM | K562 34.9 µM | KM-20L2 > 100 µM | KM12 > 100 µM | LOX IMVI > 100 µM | LXFL 529 > 64.9 µM | M14 > 100 µM | M19-MEL > 100 µM | MOLT-4 > 100 µM | Malme-3M > 100 µM | NCI-H23 > 78.7 µM | NCI-H460 > 100 µM | NCI-H522 > 80.4 µM | OVCAR-3 > 100 µM | OVCAR-4 > 100 µM | OVCAR-5 > 100 µM | OVCAR-8 > 100 µM | RPMI-8226 98.9 µM | RXF 393 > 100 µM | RXF 631 > 100 µM | SF-268 > 78.9 µM | SF-295 > 100 µM | SF-539 > 55.8 µM | SK-MEL-28 > 100 µM | SK-MEL-2 > 100 µM | SK-MEL-5 > 100 µM | SK-OV-3 > 100 µM | SN12C > 100 µM | SNB-19 > 67.9 µM | SNB-75 > 53.3 µM | SNB-78 > 60.5 µM | SW-620 > 100 µM | TK-10 > 100 µM | U-251 > 85.7 µM | UACC-257 > 100 µM | UACC-62 > 61.1 µM | UO-31 > 51.8 µM
> 87.3 µM: HCT-15

CC(=O)NC1=C(Nc2ccc(C)cc2)C(=O)c2ccccc2C1=O
inactive: 786-0 15.4 µM | A498 50.2 µM | A549 14.3 µM | ACHN 17.9 µM | CAKI-1 43.7 µM | CCRF-CEM 17.1 µM | COLO 205 18.7 µM | DLD-1 19.7 µM | DMS-114 14.5 µM | DMS-273 16.5 µM | EKVX > 75 µM | HCC 2998 31.7 µM | HCT-116 19.9 µM | HL-60 10.2 µM | HOP-18 12.2 µM | HOP-62 17.1 µM | HT-29 15.2 µM | IGROV-1 17.7 µM | K562 18.2 µM | KM-20L2 24.1 µM | KM12 24.7 µM | LOX IMVI 9.53 µM | LXFL 529 23.6 µM | M14 13.5 µM | M19-MEL 8.43 µM | MOLT-4 16.7 µM | Malme-3M 11.5 µM | NCI-H226 14.1 µM | NCI-H23 8.02 µM | NCI-H460 12.1 µM | OVCAR-3 16.6 µM | OVCAR-4 17.7 µM | OVCAR-5 13.3 µM | OVCAR-8 25 µM | RPMI-8226 11.7 µM | RXF 393 23.5 µM | SF-268 26.9 µM | SF-295 18.2 µM | SF-539 16.2 µM | SK-MEL-28 17.6 µM | SK-MEL-2 21.6 µM | SK-MEL-5 10.2 µM | SK-OV-3 > 75 µM | SN12C 15.9 µM | SNB-19 29.3 µM | SNB-75 11.6 µM | SNB-78 44.9 µM | SW-620 13.5 µM | TK-10 > 75 µM | U-251 29 µM | UACC-257 18 µM | UACC-62 10.9 µM | UO-31 25 µM | XF498 24.9 µM
14.5 µM: HCT-15

C[C@@H](NC1CCCC[C@@H]1O)c1ccccc1 (some centres not stated)
> 100 µM: HCT-15
inactive: 786-0 > 100 µM | A549 > 100 µM | ACHN > 100 µM | CAKI-1 > 100 µM | CCRF-CEM > 100 µM | COLO 205 > 100 µM | DLD-1 > 100 µM | DMS-273 > 100 µM | EKVX > 100 µM | HCC 2998 > 100 µM | HCT-116 > 100 µM | HL-60 > 100 µM | HOP-18 > 100 µM | HOP-62 > 100 µM | HOP-92 > 100 µM | HT-29 > 100 µM | IGROV-1 > 100 µM | K562 > 100 µM | KM-20L2 > 100 µM | KM12 > 100 µM | LOX IMVI > 100 µM | LXFL 529 > 100 µM | M14 > 100 µM | M19-MEL > 100 µM | MOLT-4 > 100 µM | Malme-3M > 100 µM | NCI-H226 > 100 µM | NCI-H460 > 100 µM | OVCAR-3 > 100 µM | OVCAR-4 > 100 µM | OVCAR-5 > 100 µM | OVCAR-8 > 100 µM | RPMI-8226 > 100 µM | RXF 393 > 100 µM | SF-295 > 100 µM | SK-MEL-28 > 100 µM | SK-MEL-2 > 100 µM | SK-MEL-5 > 100 µM | SK-OV-3 > 100 µM | SN12C > 100 µM | SNB-19 > 100 µM | SNB-75 98.4 µM | SNB-78 > 100 µM | SW-620 > 100 µM | TK-10 > 100 µM | U-251 > 100 µM | UACC-257 > 100 µM | UACC-62 > 100 µM | UO-31 > 100 µM | XF498 > 100 µM
